In US20120121591A1 (priority 2009, published 2012):
Where two headings read alike, the source gives them in different places.

How the values were obtained:
Type in all cases: cell-based
[1] = test system: IL-2 secretion from T cells in human whole blood; conditions: read-out: WB (IL-2) IC50 (nM, Avg)
[2] = test system: IFN-g secretion from T cells in human whole blood
hKv1.3 = hKv1.3 (Homo sapiens, UniProt P22001); experiment: cell-based; conditions: Kv1.3 (IWQ) IC50 (nM, Avg)
[3] = read-out: WB (IFNg) IC50 (nM, Avg)

Sequence of hKv1.3 (P22001 whole entry): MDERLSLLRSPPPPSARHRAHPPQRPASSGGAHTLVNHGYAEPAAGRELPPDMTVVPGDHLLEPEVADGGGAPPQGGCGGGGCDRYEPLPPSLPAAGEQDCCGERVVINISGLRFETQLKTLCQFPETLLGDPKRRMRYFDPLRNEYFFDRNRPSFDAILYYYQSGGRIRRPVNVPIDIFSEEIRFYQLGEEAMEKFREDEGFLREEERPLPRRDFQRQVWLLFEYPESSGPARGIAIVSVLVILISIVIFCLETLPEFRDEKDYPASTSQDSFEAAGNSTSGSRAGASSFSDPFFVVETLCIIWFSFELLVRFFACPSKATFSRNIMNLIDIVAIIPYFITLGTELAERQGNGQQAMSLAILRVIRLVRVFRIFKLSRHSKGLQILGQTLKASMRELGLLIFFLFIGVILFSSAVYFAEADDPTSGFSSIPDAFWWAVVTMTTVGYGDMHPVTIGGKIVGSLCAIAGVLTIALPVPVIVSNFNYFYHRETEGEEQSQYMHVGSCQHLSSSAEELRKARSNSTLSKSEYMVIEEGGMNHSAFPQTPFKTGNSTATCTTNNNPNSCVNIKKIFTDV

CC[C@H](C)[C@@H]1NC(=O)[C@@H](NC(=O)[C@H](CO)NC(=O)[C@@H](N)CCCNC(=N)N)CSSC[C@@H](C(=O)O)NC(=O)[C@H]([C@@H](C)O)NC(=O)CNC(=O)[C@@H]2CSSC[C@@H]3NC(=O)[C@H](CCC(N)=O)NC(=O)[C@H](Cc4ccccc4)NC(=O)[C@H](C)NC(=O)[C@H]([C@@H](C)O)NC(=O)[C@H](CSSC[C@H](NC(=O)[C@H](Cc4ccccc4)NC(=O)[C@H](CCC(=O)O)NC(=O)[C@H](CC(C)C)NC(=O)[C@H](CCCNC(=N)N)NC(=O)[C@H](Cc4ccc(O)cc4)NC(=O)[C@H](CCCCN)NC(=O)[C@H](CCSC)NC(=O)[C@H](CO)NC(=O)[C@H](Cc4c[nH]cn4)NC(=O)[C@H](CCCCN)NC3=O)C(=O)N[C@@H](CCCNC(=N)N)C(=O)N[C@@H](CCCCN)C(=O)N[C@@H]([C@@H](C)O)C(=O)N2)NC(=O)[C@H](CCCNC(=N)N)NC(=O)[C@H](CO)NC(=O)[C@H](CCCCN)NC(=O)[C@@H]2CCCN2C(=O)[C@H]([C@@H](C)CC)NC(=O)[C@H]([C@@H](C)O)NC(=O)[C@H](CC(=O)O)NC1=O [[Glu26]ShK]
IC50 [1]: 0.202 nM | IC50 ([2]; read-out: WB (IFNg) IC5- (nM, Avg)): 0.4 nM | IC50 (hKv1.3): 0.317 nM

CCCC[C@@H]1NC(=O)[C@H](CO)NC(=O)[C@H](Cc2c[nH]cn2)NC(=O)[C@H](CCC(=O)O)NC(=O)[C@@H]2CSSC[C@@H]3NC(=O)[C@H]([C@@H](C)O)NC(=O)[C@H](CCCNC(=N)N)NC(=O)[C@H](CCCNC(=N)N)NC(=O)[C@H](CSSC[C@H](NC(=O)[C@H](CCCNC(=N)N)NC(=O)[C@H](CO)NC(=O)[C@H](CCCCN)NC(=O)[C@@H]4CCCN4C(=O)[C@H]([C@@H](C)CC)NC(=O)[C@H]([C@@H](C)O)NC(=O)[C@H](CC(=O)O)NC(=O)[C@H]([C@@H](C)CC)NC(=O)[C@@H](NC(=O)[C@H](CO)NC(=O)[C@@H](N)CCCNC(=N)N)CSSC[C@@H](C(N)=O)NC(=O)[C@H]([C@@H](C)O)NC(=O)CNC3=O)C(=O)N[C@@H]([C@@H](C)O)C(=O)N[C@@H](C)C(=O)N[C@@H](C)C(=O)N[C@@H](CCCCN)C(=O)N2)NC(=O)[C@H](Cc2ccccc2)NC(=O)[C@H](CO)NC(=O)[C@H](CC(C)C)NC(=O)[C@H](CCCNC(=N)N)NC(=O)[C@H](Cc2ccc(O)cc2)NC(=O)[C@H](CCCCN)NC1=O
IC50 [1]: 1.32 nM | IC50 [2, 3]: 2.03 nM | IC50 (hKv1.3): 0.398 nM

CC[C@H](C)[C@@H]1NC(=O)[C@H]([C@@H](C)O)NC(=O)[C@H](CC(=O)O)NC(=O)[C@H](CCC(=O)O)NC(=O)[C@@H](NC(=O)[C@H](CO)NC(=O)[C@@H](N)CCCNC(=N)N)CSSC[C@@H](C(=O)N[C@@H](C)C(=O)O)NC(=O)[C@H]([C@@H](C)O)NC(=O)CNC(=O)[C@@H]2CSSC[C@@H]3NC(=O)[C@H](CCCCN)NC(=O)[C@H](Cc4ccccc4)NC(=O)[C@H](C)NC(=O)[C@H]([C@@H](C)O)NC(=O)[C@H](CSSC[C@H](NC(=O)[C@H](Cc4ccccc4)NC(=O)[C@H](CO)NC(=O)[C@H](CC(C)C)NC(=O)[C@H](CCCNC(=N)N)NC(=O)[C@H](Cc4ccc(O)cc4)NC(=O)[C@H](CCCCN)NC(=O)[C@H](CCC(N)=O)NC(=O)[C@H](CO)NC(=O)[C@H](Cc4c[nH]cn4)NC(=O)[C@H](CCCCN)NC3=O)C(=O)N[C@@H](CCCNC(=N)N)C(=O)N[C@@H](CCCCN)C(=O)N[C@@H]([C@@H](C)O)C(=O)N2)NC(=O)[C@H](CCCNC(=N)N)NC(=O)[C@H](CO)NC(=O)[C@H](CCCCN)NC(=O)[C@@H]2CCCN2C1=O [[Glu4,Lys16,Gln21]ShK-Ala]
IC50 [1]: 0.137 nM | IC50 [2, 3]: 0.265 nM | IC50 (hKv1.3): 26.4 nM

CCC[C@@H]1NC(=O)[C@H](CO)NC(=O)[C@H](Cc2c[nH]cn2)NC(=O)[C@H](CCCCN)NC(=O)[C@@H]2CSSC[C@@H]3NC(=O)[C@H]([C@@H](C)O)NC(=O)[C@H](CCCCN)NC(=O)[C@H](CCCNC(=N)N)NC(=O)[C@H](CSSC[C@H](NC(=O)[C@H](CCCNC(=N)N)NC(=O)[C@H](CO)NC(=O)[C@H](CCCCN)NC(=O)[C@@H]4CCCN4C(=O)[C@H]([C@@H](C)CC)NC(=O)[C@H]([C@@H](C)O)NC(=O)[C@H](CC(=O)O)NC(=O)[C@H](CCC(=O)O)NC(=O)[C@@H](NC(=O)[C@H](CO)NC(=O)[C@@H](N)CCCNC(=N)N)CSSC[C@@H](C(N)=O)NC(=O)[C@H]([C@@H](C)O)NC(=O)CNC3=O)C(=O)N[C@@H]([C@@H](C)O)C(=O)N[C@@H](C)C(=O)N[C@@H](Cc3ccccc3)C(=O)N[C@@H](CCCCN)C(=O)N2)NC(=O)[C@H](Cc2ccccc2)NC(=O)[C@H](CO)NC(=O)[C@H](CC(C)C)NC(=O)[C@H](CCCNC(=N)N)NC(=O)[C@H](Cc2ccc(O)cc2)NC(=O)[C@H](CCCCN)NC1=O [[Glu4, Lys16,Nva21]ShK-amide]
IC50 [1]: 0.405 nM | IC50 [2, 3]: 0.427 nM | IC50 (hKv1.3): 0.086 nM

CC[C@H](C)[C@@H]1NC(=O)[C@@H](NC(=O)[C@H](CO)NC(=O)[C@H](C)N)CSSC[C@@H](C(=O)O)NC(=O)[C@H]([C@@H](C)O)NC(=O)CNC(=O)[C@@H]2CSSC[C@@H]3NC(=O)[C@H](CCC(N)=O)NC(=O)[C@H](Cc4ccccc4)NC(=O)[C@H](C)NC(=O)[C@H]([C@@H](C)O)NC(=O)[C@H](CSSC[C@H](NC(=O)[C@H](Cc4ccccc4)NC(=O)[C@H](CO)NC(=O)[C@H](CC(C)C)NC(=O)[C@H](CCCNC(=N)N)NC(=O)[C@H](Cc4ccc(O)cc4)NC(=O)[C@H](CCCCN)NC(=O)[C@H](CCSC)NC(=O)[C@H](CO)NC(=O)[C@H](Cc4c[nH]cn4)NC(=O)[C@H](CCCCN)NC3=O)C(=O)N[C@@H](CCCNC(=N)N)C(=O)N[C@@H](CCCCN)C(=O)N[C@@H]([C@@H](C)O)C(=O)N2)NC(=O)[C@H](CCCNC(=N)N)NC(=O)[C@H](CO)NC(=O)[C@H](CCCCN)NC(=O)[C@@H]2CCCN2C(=O)[C@H]([C@@H](C)CC)NC(=O)[C@H]([C@@H](C)O)NC(=O)[C@H](CC(=O)O)NC1=O [[Ala1]ShK]
IC50 [1]: 0.073 nM | IC50 [2, 3]: 0.102 nM | IC50 (hKv1.3): 0.168 nM

CC[C@H](C)[C@@H]1NC(=O)[C@@H](NC(=O)[C@H](CO)NC(=O)[C@@H](N)CCCNC(=N)N)CSSC[C@@H](C(=O)O)NC(=O)[C@H]([C@@H](C)O)NC(=O)CNC(=O)[C@@H]2CSSC[C@@H]3NC(=O)[C@H](CCC(N)=O)NC(=O)[C@H](Cc4ccccc4)NC(=O)[C@H](C)NC(=O)[C@H]([C@@H](C)O)NC(=O)[C@H](CSSC[C@H](NC(=O)[C@H](Cc4ccccc4)NC(=O)[C@H](CO)NC(=O)[C@H](CC(C)C)NC(=O)[C@H](CCCNC(=N)N)NC(=O)[C@H](Cc4ccc(O)cc4)NC(=O)[C@H](CCCCN)NC(=O)[C@H](CCSC)NC(=O)[C@H](CO)NC(=O)[C@H](Cc4c[nH]cn4)NC(=O)[C@H](CCCCN)NC3=O)C(=O)N[C@@H](CCCNC(=N)N)C(=O)N[C@@H](CCCCN)C(=O)N[C@@H]([C@@H](C)O)C(=O)N2)NC(=O)[C@H](CCCNC(=N)N)NC(=O)[C@H](CCCNC(=N)N)NC(=O)[C@H](CCCCN)NC(=O)[C@@H]2CCCN2C(=O)[C@H]([C@@H](C)CC)NC(=O)[C@H]([C@@H](C)O)NC(=O)[C@H](CC(=O)O)NC1=O [[Arg10]ShK]
IC50 [1]: 0.029 nM | IC50 [2, 3]: 0.068 nM | IC50 (hKv1.3): 0.07 nM

CCCC[C@@H]1NC(=O)[C@H](CO)NC(=O)[C@H](Cc2c[nH]cn2)NC(=O)[C@H](CCC(=O)O)NC(=O)[C@@H]2CSSC[C@@H]3NC(=O)[C@H]([C@@H](C)O)NC(=O)[C@H](CCCCN)NC(=O)[C@H](CCCNC(=N)N)NC(=O)[C@H](CSSC[C@H](NC(=O)[C@H](CCCNC(=N)N)NC(=O)[C@H](CO)NC(=O)[C@H](CCCCN)NC(=O)[C@@H]4CCCN4C(=O)[C@H]([C@@H](C)CC)NC(=O)[C@H]([C@@H](C)O)NC(=O)[C@H](CC(=O)O)NC(=O)[C@H]([C@@H](C)CC)NC(=O)[C@@H](NC(=O)[C@H](CO)NC(=O)[C@@H](N)CCCNC(=N)N)CSSC[C@@H](C(N)=O)NC(=O)[C@H]([C@@H](C)O)NC(=O)CNC3=O)C(=O)N[C@@H]([C@@H](C)O)C(=O)N[C@@H](C)C(=O)N[C@@H](Cc3ccccc3)C(=O)N[C@@H](CCCCN)C(=O)N2)NC(=O)[C@H](Cc2ccccc2)NC(=O)[C@H](CO)NC(=O)[C@H](CC(C)C)NC(=O)[C@H](CCCNC(=N)N)NC(=O)[C@H](Cc2ccc(O)cc2)NC(=O)[C@H](CCCCN)NC1=O [[Lys16,Glu18,Nle21]ShK-amide]
IC50 [1]: 0.477 nM | IC50 [2, 3]: 0.929 nM | IC50 (hKv1.3): 0.28 nM

CC[C@H](C)[C@@H]1NC(=O)[C@@H](NC(=O)[C@H](CO)NC(=O)[C@@H](N)CCCNC(=N)N)CSSC[C@@H](C(N)=O)NC(=O)[C@H]([C@@H](C)O)NC(=O)CNC(=O)[C@@H]2CSSC[C@@H]3NC(=O)[C@H](CCCCN)NC(=O)[C@H](Cc4ccccc4)NC(=O)[C@H](C)NC(=O)[C@H]([C@@H](C)O)NC(=O)[C@H](CSSC[C@H](NC(=O)[C@H](Cc4c[nH]c5ccccc45)NC(=O)[C@H](CO)NC(=O)[C@H](CC(C)C)NC(=O)[C@H](CCCNC(=N)N)NC(=O)[C@H](Cc4ccc(O)cc4)NC(=O)[C@H](CCCCN)NC(=O)[C@H](CCSC)NC(=O)[C@H](CO)NC(=O)[C@H](Cc4c[nH]cn4)NC(=O)[C@H](CCCCN)NC3=O)C(=O)N[C@@H](CCCCN)C(=O)N[C@@H](CCCCN)C(=O)N[C@@H]([C@@H](C)O)C(=O)N2)NC(=O)[C@H](CCCNC(=N)N)NC(=O)[C@H](CO)NC(=O)[C@H](CCCCN)NC(=O)[C@@H]2CCCN2C(=O)[C@H]([C@@H](C)CC)NC(=O)[C@H]([C@@H](C)O)NC(=O)[C@H](CC(=O)O)NC1=O [[Lys16,29;Trp27]ShK-amide]
IC50 [1]: 0.264 nM | IC50 [2, 3]: 0.606 nM | IC50 (hKv1.3): 0.121 nM
